From publication PMC12598805, “Crystal Structure–Activity Relationship of Some MeO Phenylacrylonitriles: Dual Antimicrobial–Cytotoxic Effects and in Silico Perspectives” (ChemistryOpen, 2025) come the findings set out here.

Structures are written as SMILES. Values after ≈ are worked out from the molar mass of the structure shown. Like-named read-outs stand apart in the source and are kept apart here.

Data set [1] concerns human breast carcinoma (MCF‐7) cells. Kind of data set: Cytotoxicity, CCK8 cell viability. The following applies: for IC50: Homo sapiens, MCF7, read-out: Cytotoxic activity IC50. The data set is classed as cell-based. The text has this:
(§1) We investigated the cytotoxic effects of acrylonitrile derivatives 2(a–c) on human lung carcinoma (A549, CCL‐185) cells purchased from American Culture Collection and human breast carcinoma (MCF‐7) cells purchased from Republic of Turkey Ministry of Agriculture and Forestry Şap Institute, (HUKUK, 00092502), In addition, mouse fibroblast cells (L929, CCL‐1) purchased from American Culture Collection were used to observe the effects of the compounds on healthy cells. In 25 T Flask, A549 cells were grown in dulbecco's modified eagle's medium, MCF‐7, and L929 cells were grown in eagle's minimum essential medium (EMEM), 10% fetal bovine serum and 1% Penicillin‐Streptomycin at 37 °C in a 5% CO2 and 100% humidified incubator. Cell proliferation was checked every day. Cells were taken into the experiment when the cell density reached 70% to 80%. (See Supporting Information for experimental preparation of biological studies).
(§2) The compounds 2a, 2b, and 2c were dissolved in 99.8% Dimethyl sulfoxide (DMSO) respectively, as
(§3) 10 mM main stock. To prepare the doses of acrylonitrile compounds used in the experiment to be
(§4) applied to the cells, five different concentrations of 31.25; 62.5; 125; 250 and 500 μM were prepared
(§5) by diluting the main stock solutions (10 mM) with the medium selected according to the cells. 5-
(§6) Fluorouracil (5-FU) was selected as a positive control in the study. After the 5-FU main stock solution
(§7) was dissolved with DMSO to be 10 mM, the concentrations to be used were diluted with the selected
(§8) media and made ready for the experimental plan. The concentrations used for 5-FU were prepared in
(§9) the same doses used for acrylonitrile derivatives. For the negative control group, groups containing
(§10) only media and no substance were used. Prepared acrylonitrile compounds and 5-FU concentrations
(§11) were added to the wells in three replicates for each dose, and their effects on cell viability at 24 and 48
(§12) Trypan blue solution (Gibco, 1525061) was used to distinguish between living and dead cells in the
(§13) study. Trypan blue passes uncontrollably through the membrane of dead cells that have lost their cell
(§14) membrane integrity and stains the cell blue. Living cells, on the other hand, are not stained because
(§15) Live cell counts were performed using trypan blue using a
(§16) cell counter (Logos Luna II).
(§17) In order to detach the cells adhering to the flasks from the bottom, 500 μL of 0.25% Trypsin-EDTA
(§18) (Gibco, 15400054) solution was added and treated for five minutes.
(§19) detach from the bottom under an inverted microscope (Zeiss Primovert, Germany), medium containing
(§20) 10% FBS was added. After centrifugation at 300 g for 5 minutes and discarding the medium, 1 mL of
(§21) medium was added and the cells were seeded into 96-well culture dishes as 1x10^4 cells in 100 μL per
(§22) Cell Counting Kit 8 (CCK8; Medchem, 146436) was used to determine cell viability. After adding 20 μL
(§23) of CCK8 solution to each well in the dark, 96-well culture dishes were wrapped with aluminum foil and
(§24) kept in a CO2 incubator at 37 °C for 2 hr. Then, it was automatically read with a microplate reader
(§25) (Chromate) at 450 and 630 nm wavelengths. The following formula was used to determine cell
(§26) % Viability = (Sample Well−Blank) (Negative Control−Blank)×100 (1)
(§27) The half-maximal inhibitory concentration (IC50) was calculated as 50% cell death causing dose
(§28) compared to the control group. All data are given as the mean percent fraction of control ± SEM.
(§29) Statistical analysis was done by one-way analysis of variance (ANOVA), followed by Tukey’s multiple
(§30) comparison tests. IBM SPSS Statistics 22 was used to utilize statistical analysis. […]

Data set [2] has as its system human lung carcinoma (A549, CCL‐185) cells. Kind of data set: Cytotoxicity, CCK8 cell viability. Format: cell-based. The settings on record: for IC50: Homo sapiens, read-out: Cytotoxic activity IC50.
Description: as §1, §2, §3, §4, §5, §6, §7, §8, §9, §10, §11, §12, §13, §14, §15, §16, §17, §18, §19, §20, §21, §22, §23, §24, §25, §26, §27, §28, §29, §30

Data set [3] in a line: Cytotoxicity on healthy cells, CCK8 cell viability. The data set is classed as cell-based, mouse. The settings on record: mouse, L929 mouse fibroblast cells, read-out: Cytotoxic activity IC50.
Description: as §1, §2, §3, §4, §5, §6, §7, §8, §9, §10, §11, §12, §13, §14, §15, §16, §17, §18, §19, §20, §21, §22, §23, §24, §25, §26, §27, §28, §29, §30

The test system of data set [4] is mouse fibroblast cells (L929, CCL‐1). Kind of data set: Cytotoxicity on healthy cells, CCK8 cell viability. The data set is classed as cell-based.
Description: as §1, §2, §3, §4, §5, §6, §7, §8, §9, §10, §11, §12, §13, §14, §15, §16, §17, §18, §19, §20, §21, §22, §23, §24, §25, §26, §27, §28, §29, §30

The subject of data set [5] is Bacillus cereus (ATCC-10876). Kind of data set: Agar diffusion, zone of inhibition. The following applies: B.cereus, antibiotics at 5 mg mL^−1. The data set is classed as cell-based. The text has this:
(§31) The antibacterial and antifungal activities were reported utilizing the method described by the Clinical & Laboratory Standards Institute.^[ [31], [32] ^] Agar diffusion method was used to determine the antimicrobial activity of the synthesized substances. The media used were mueller hinton agar (MHA) for bacteria and sabouraud‐dextrose agar (SDA) for fungi (Merck), as recommended by the manufacturer.
(§32) The synthesized compounds were initially investigated for their antimicrobial activity to elucidate the potential therapeutic utility against various pathogenic microbes using the agar plate diffusion method. The compounds were tested at a concentration of 50 mg mL^−1, and the antibiotics (ampicillin, kanamycin, and amphotericin B) were used at 5 mg mL^−1. […] K.pneumoniae and B.cereus were resistant to ampicillin, while they were susceptible to kanamycin with inhibition values of 30 and 26 mm, respectively. No antimicrobial activity of the compounds was observed against E.faecalis, S.typhimurium, K.pneumoniae, and for the fungus compared to Amphotericin B (20 mm).
(§33) Bacillus cereus (ATCC-10876) […]
(§34) ATCC: American Type Culture Collection; NRRL: Northern Regional Research Laboratory The compounds 2(a-c) obtained could only be completely solubilised with dimethyl sulphoxide (DMSO) and the highest possible stock solutions of 50 mg.mL-1 were prepared. To these wells 50 μl of the previously prepared substances were transferred using sterile micropipette tips. For comparison, Ampicillin and kanamycin antibiotics for bacteria and Amphotericin B antibiotics for fungus were used as positive controls and DMSO was used as negative control. The prepared petri plates were kept at +4°C for about 1 hour and then the bacterial cultures were incubated at 37°C for 18-24 hours and mould cultures at 27-30°C for 48-72 hours. The zones formed were measured millimetrically with callipers. The experiments were performed with three repetitions. […]

The subject of data set [6] is Klebsiella pneumoniae (ATCC-70063). Kind of data set: Agar diffusion, zone of inhibition. Format: cell-based. The settings on record: K.pneumoniae, antibiotics at 5 mg mL^−1.
Description: as §31
as §32, with “mm). […]” for “mm).”
Klebsiella pneumoniae (ATCC-70063)
as §34
A general note: In agar diffusion tests the substance spreads into inoculated agar from a disc or well.

The test system of data set [7] is Bacillus cereus (ATCC-10876). Kind of data set: Broth microdilution MIC. Format: cell-based. The following applies: B.cereus. The protocol: as §33
(§35) ATCC: American Type Culture Collection; NRRL: Northern Regional Research Laboratory The compounds 2(a-c) obtained could only be completely solubilised with dimethyl sulphoxide (DMSO) and the highest possible stock solutions of 50 mg.mL-1 were prepared. […]
(§36) 3.1. Determination of Minimum Inhibition Concentration (MIC)
(§37) The minimum inhibition concentration (MIC) values of the compounds 2(a-c) against the test bacteria used in the study were determined according to the broth microdilution method.[1-2] MHB or SDB was used as test medium and bacterial and yeast suspensions were prepared at 0.5 Mc Farland concentration for each test bacteria. Double layer serial dilutions were prepared in "U" type 96-well microtiter plates. Medium+bacteria suspensions containing only medium in the first row, medium+bacteria in the second row and the final concentrations of the synthesised substances in the other rows between 25 mg.mL-1 and […] were added to the wells with a final volume of 200
(§38) μL. Ampicillin, Kanamycin and Amphotericin B standard antibiotics were used as positive controls.
(§39) Bacteria were incubated at 37±0.1 °C and C. albicans at 30±0.1 °C for 24-48 hours and the lowest concentration without growth was determined as MIC. Tests were performed in two parallel runs and mean values were given as a result. […]
For orientation: Broth dilution looks for growth in wells or tubes with falling amounts of substance.

The test system of data set [8] is Bacillus cereus (ATCC-10876). Kind of data set: MBC by sub-culture from wells without growth. The data set is classed as cell-based. The settings on record: B.cereus. The protocol: as §33, §35, §36, §37, §38
Bacteria were incubated at 37±0.1 °C and C. albicans at 30±0.1 °C for 24-48 hours and the lowest concentration without growth was determined as MIC. Tests were performed in two parallel runs and mean values were given as a result. In order to estimate “the minimum bactericidal/fungicidal concentrations (MBC/MFC) of the synthesised acrylonitrile derivatives “needed to indicate […] killing of the original inoculum,” 10 μl was taken from the wells with no observed growth and further sub-cultured onto their agar media (MHA and SDA for bacterial and fungal strains, respectively).[3] […]

Data set [9] concerns Candida albicans (ATCC-10231). Kind of data set: Agar diffusion, zone of inhibition. Format: cell-based. The settings on record: C.albicans, antibiotics at 5 mg mL^−1.
Description: as §31
as §32, with “mm). […]” for “mm).”
as §34

Data set [10] concerns Candida albicans (ATCC-10231). Kind of data set: MBC/MFC by sub-culture from wells without growth. The data set is classed as cell-based. The settings on record: ATCC10231, C.albicans. How it is done: as §35, §36, §37, §38, §39

For `O=c1[nH]cc(F)c(=O)[nH]1` [5‐FU, 5‐Fluorouracil, reference compound], the IC50 in data set [1] (MCF‐7, 24 h) was 250 µM; in [1] (MCF‐7, 48 h) it was 102 µM; in [2] (A549, 24 h), more than 500 µM; in data set [2] (A549, 48 h), 386 µM. Moreover, the “decrease in cell viability” value in data set [1] (MCF‐7, 24 h, 31.25 μM) is 23%; in data set [1] (MCF‐7, 24 h, 62.5 μM), 23%; in data set [1] (MCF‐7, 24 h, 125 μM) it was 34%; in [1] (MCF‐7, 24 h, 250 μM), 50%; in [1] (MCF‐7, 24 h, 500 μM), 76%; in data set [1] (MCF‐7, 48 h, 31.25 μM) it was 46%. Moreover, the “decrease in cell viability” value in data set [1] (MCF‐7, 48 h, 62.5 μM) is listed as 47%; in data set [1] (MCF‐7, 48 h, 125 μM), 52%; in data set [1] (MCF‐7, 48 h, 250 μM), 74%; in [1] (MCF‐7, 48 h, 500 μM) it was 95%; in [2] (A549, 48 h, 250 μM) it was 17%; in data set [2] (A549, 48 h, 500 μM) it was 77%. Also, the “decrease in cell viability” value in data set [4] (L929, 24 h, 31.25 μM) is reported as 45%; in [4] (L929, 24 h, 62.5 μM), 45%; in [4] (L929, 24 h, 125 μM) it was 51%; in data set [4] (L929, 24 h, 250 μM) it was 62%; in [4] (L929, 24 h, 500 μM) it was 93%; in [4] (L929, 48 h, 31.25 μM), 50%. The “decrease in cell viability” value in [4] (L929, 48 h, 62.5 μM) is 64%; in data set [4] (L929, 48 h, 125 μM), 68%; in data set [4] (L929, 48 h, 250 μM), 80%; in data set [4] (L929, 48 h, 500 μM) it was 93%. For the same molecule, in data set [2] (A549, 24 h, 31.25 to 500 μM), the “suppressive effect on cell proliferation / viability” value was “did not show any suppressive effect”. The half-inhibitory concentration (IC50) at 24 h in data set [3] (L929, 24 h) worked out at 109 µM. In addition, the half-inhibitory concentration (IC50) at 48 h in [3] (L929, 48 h) turned out to be 33 µM.
As for `NC[C@H]1O[C@H](O[C@H]2[C@H](O)[C@@H](O[C@H]3O[C@H](CO)[C@@H](O)[C@H](N)[C@H]3O)[C@H](N)C[C@@H]2N)[C@H](O)[C@@H](O)[C@@H]1O` [Kanamycin, reference compound], the zone of inhibition in data set [5] stood at 26 ± 1.41 mm; in data set [5] (listed as kanamycin) it was 26 mm; in data set [6], 30 ± 0 mm; in data set [6] (listed as kanamycin) it was 30 mm. The molecule also showed an MIC in [7] of 0.03125 mg/mL (≈ 64.5 µM). Also, the MBC in data set [8] came to 0.0625 mg/mL (≈ 129 µM).
As for `C[C@@H]1[C@H](O)[C@@H](C)/C=C/C=C/C=C/C=C/C=C/C=C/C=C/[C@H](O[C@@H]2O[C@H](C)[C@@H](O)[C@H](N)[C@@H]2O)C[C@@H]2O[C@](O)(C[C@@H](O)C[C@@H](O)[C@H](O)CC[C@@H](O)C[C@@H](O)CC(=O)O[C@H]1C)C[C@H](O)[C@H]2C(=O)O` [Amphotericin B, reference compound], the zone of inhibition in [9] was determined as 20 ± 0.71 mm. This molecule came in with a zone of inhibition at 5 mg/mL in [9] (Candida albicans, ATCC10231) of 20 mm. Besides, in data set [10], the MBC worked out at 250 µg/mL (≈ 271 µM).

In general, IC50 refers to the midpoint of a concentration-inhibition curve. A word on the zone of inhibition: it is the extent of the growth-free halo in a diffusion test. Low readings indicate little suppression of growth, high ones wide suppression of growth. A word on the MIC: it is the least concentration at which growth counts as inhibited. Low readings indicate inhibition by little substance, high ones a need for much substance.
